Data reported in article PMC6724193 (ACS infectious diseases, 2019).
Converted amounts (≈) assume the structure as drawn. “And” between values parts separate entries of the source, which are not always exact repeats. Equal values may be shown once. “Also recorded” adds a separate entry of the source. Read-outs that look alike come from different tables or passages of the source. Marks after values point to notes of the source that are not given here.

What was measured:
Vero = details: African green monkey, 72 h
[1] = biological target: E. coli biotin synthase (EcBioB) (Escherichia coli, UniProt P12996); experiment: biochemical; format: biochemical; details: for IC50: 5 μM EcBioB dimer, 10 μM DTB, 100 μM SAM, single-turnover
Chain of E. coli biotin synthase (EcBioB) (P12996 whole entry): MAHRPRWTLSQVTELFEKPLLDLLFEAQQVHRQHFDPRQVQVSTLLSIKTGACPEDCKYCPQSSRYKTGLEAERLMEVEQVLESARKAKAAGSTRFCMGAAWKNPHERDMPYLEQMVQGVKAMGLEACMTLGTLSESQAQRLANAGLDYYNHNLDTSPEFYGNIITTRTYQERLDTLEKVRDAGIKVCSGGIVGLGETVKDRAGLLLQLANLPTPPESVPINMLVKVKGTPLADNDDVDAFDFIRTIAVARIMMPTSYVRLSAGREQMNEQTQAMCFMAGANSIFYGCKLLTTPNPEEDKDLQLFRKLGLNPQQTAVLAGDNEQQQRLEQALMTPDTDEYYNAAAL

A. baumannii (AB5075) = experiment: MIC, broth microdilution, A. baumannii; details: Acinetobacter baumannii
HepG2 = details: human, 72 h
E. faecalis (V583) = experiment: MIC, broth microdilution, E. faecalis; details: Enterococcus faecalis
[2] = tested on: M. tuberculosis strain carrying two copies of the bioB gene; experiment: MIC against BioB merodiploid strain; format: cell-based
M. bovis BCG = experiment: microbe, parasite or virus in culture; format: cell-based
P. aeruginosa (PA14) = experiment: MIC, broth microdilution, P. aeruginosa; details: Pseudomonas aeruginosa
S. aureus (USA300) = experiment: MIC, broth microdilution, S. aureus; details: Staphylococcus aureus
M. tuberculosis HN878 = experiment: microbe, parasite or virus in culture; format: cell-based; details: Mycobacterium tuberculosis
M. tuberculosis H37Rv [3] = format: cell-based
E. coli K-12 = experiment: Intracellular accumulation of antibiotics; format: cell-based
E. coli ATCC 25922 = experiment: MIC, broth microdilution, E. coli; details: Escherichia coli, ATCC25922
[4] = tested on: non-tuberculosis mycobacteria, gram-positive and gram-negative pathogens; experiment: organism not typed; format: cell-based
M. avium complex (3) = experiment: MIC against M. avium complex; format: cell-based; details: Mycobacterium avium
M. tuberculosis (6) MDR+ = experiment: microbe, parasite or virus in culture; format: cell-based; details: Mycobacterium tuberculosis
M. tuberculosis (7) MDR = experiment: microbe, parasite or virus in culture; format: cell-based; details: Mycobacterium tuberculosis
[5] = tested on: M. tuberculosis (8) drug-sensitive clinical isolates; experiment: microbe, parasite or virus in culture; format: cell-based; details: Mycobacterium tuberculosis
M. tuberculosis H37Rv [6] = experiment: MIC against M. tuberculosis H37Rv; format: cell-based, Mycobacterium tuberculosis
M. abscessus (4) = experiment: MIC against M. abscessus; format: cell-based; details: Mycobacteroides abscessus
M. tuberculosis (2) XDR = experiment: microbe, parasite or virus in culture; format: cell-based; details: Mycobacterium tuberculosis
M. tuberculosis Erdman = experiment: microbe, parasite or virus in culture; format: cell-based; details: Mycobacterium tuberculosis
M. africanum = experiment: microbe, parasite or virus in culture; format: cell-based
M. smegmatis mc^2155 = experiment: MIC90 against M. smegmatis; format: cell-based; details: ≥90% growth inhibition
[7] = for t1/2 (i.v.): 5 mg/kg i.v., terminal elimination half-life; for F (oral bioavailability) / AUC0–∞ (i.v.) / CL (i.v.) / Vd (i.v.) / AUC0–∞ (p.o.): mouse, in vivo; for AUC0–∞ (i.v.) / CL (i.v.) / Vd (i.v.): iv, 5 mg/kg; for AUC0–∞ (p.o.): po, 25 mg/kg
[8] = tested on: biotinylated proteome of M. tuberculosis; format: cell-based, M. tuberculosis H37Ra
mycobacteria = details: cited from earlier work
[9] = tested on: biotin pathway intermediates (vitamers); details: acidomycin added to culture media; cited from earlier work
[10] = biological target: MtBPL (M. tuberculosis biotin protein ligase) (Mycobacterium tuberculosis, UniProt I6YFP0); format: binding
Chain of MtBPL (M. tuberculosis biotin protein ligase) (I6YFP0 whole entry, looked up): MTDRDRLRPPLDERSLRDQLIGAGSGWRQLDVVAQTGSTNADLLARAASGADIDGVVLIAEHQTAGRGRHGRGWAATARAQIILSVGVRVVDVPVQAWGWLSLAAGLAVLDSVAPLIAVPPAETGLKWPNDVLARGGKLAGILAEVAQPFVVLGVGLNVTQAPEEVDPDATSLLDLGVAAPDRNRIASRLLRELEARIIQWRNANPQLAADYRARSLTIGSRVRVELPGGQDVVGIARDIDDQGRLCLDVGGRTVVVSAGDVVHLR

[11] = tested on: gram-positive and gram-negative bacteria or fungi; details: cited from earlier work
[12] = tested on: M. tuberculosis infection; details: cited from earlier work

For `O=C(O)CCCCCC1NC(=O)CS1` (racemic) [(±)-acidomycin, 6-(4-Oxothiazolidin-2-yl)hexanoic acid], the “EC (greater than 50% inhibition of cell viability)” value (Vero) was >1000^e μM, the Ki [1] was 2 ± 1.3 µM and the modality of inhibition [1] was “competitive inhibitor; also recorded: competitive inhibition”. For the same compound, the MIC90 (A. baumannii (AB5075)) was over 1000 µM, the “EC (greater than 50% inhibition of cell viability)” value (HepG2) was >1000^e μM and the MIC90 (E. faecalis (V583)) was over 1000 µM. The “change of MIC in BioB merodiploid versus H37Rv” value [2] was “increase in the MIC”, the MIC (M. bovis BCG) was 1.30 µM (≈ 0.282 µg/mL) and the MIC (M. bovis BCG; Mycobacterium tuberculosis variant bovis BCG, BCG) was 1.3 µM (≈ 0.282 µg/mL). It also gave an MIC90 (P. aeruginosa (PA14)) of over 1000 µM, an MIC90 (S. aureus (USA300)) of over 1000 µM and an MIC (M. tuberculosis HN878) of 0.6 µM (≈ 0.13 µg/mL). The “effect of KAPA supplementation on growth inhibition” value (M. tuberculosis H37Rv [3]) was “no effect”, the “effect of biotin supplementation on growth inhibition” value (M. tuberculosis H37Rv [3]) was “completely rescued” and the “shift of MIC by DTB supplementation” value (M. tuberculosis H37Rv [3]) was “approximately two-fold”. The “IC/EC Ratio” value (E. coli K-12) was 1.6 and 1.6 ± 0.4, the “Intracellular Concentration, −biotin” value (E. coli K-12) was 80 µM and the “Accumulation, −biotin” value (E. coli K-12; E. coli, 50 μM extracellular) was 80 ± 20 nmol/10^12 CFUs. For the same compound, the “Accumulation, +biotin” value (E. coli K-12; E. coli, 50 μM extracellular, 1 μM biotin) was 61 ± 2 nmol/10^12 CFUs, the “Intracellular Concentration, −biotin” value (E. coli K-12; E. coli, cell volume 1.0 μm^3) was 80 ± 20 µM and the MIC90 (E. coli ATCC 25922) was over 1000 µM. The “activity toward representative gram-negative and gram-positive pathogens” value [4] was “inactive”, the “Accumulation, +biotin” value (M. tuberculosis H37Ra) was 1150 ± 40 nmol/10^12 CFUs and the “Accumulation, −biotin” value (M. tuberculosis H37Ra) was 1300 ± 400 nmol/10^12 CFUs. The “Intracellular Concentration, −biotin” value (M. tuberculosis H37Ra) was 2600 ± 800 µM, the “fold higher accumulation in M. tuberculosis than in E. coli” value (M. tuberculosis H37Ra) was “approximately 30 fold” and the “impact of exogenous biotin on cellular accumulation in M. tuberculosis” value (M. tuberculosis H37Ra) was “little impact”. It also gave an MIC (M. avium complex (3)) of over 100 µM, an MIC (M. tuberculosis (6) MDR+) of 0.2 to 4.8 µM (≈ 0.0435 to 1.04 µg/mL) and an MIC (M. tuberculosis (7) MDR) of 0.6 to 6.2 µM (≈ 0.13 to 1.35 µg/mL). For the same compound, the MIC [5] was 0.096 to 6.2 µM (≈ 0.0209 to 1.35 µg/mL), the MIC (M. tuberculosis H37Rv [6]) was 1.56 µM (≈ 0.339 µg/mL) and the “effect on M. tuberculosis viability” value (M. tuberculosis H37Rv [6]) was “bacteriostatic”. For the same compound, the “fold difference in MIC relative to (S)-(−)-acidomycin” value (M. tuberculosis H37Rv [6]) was “about 2.5 fold”, the MIC (M. tuberculosis H37Rv [6]; Mycobacterium tuberculosis, H37RV) was 1.6 µM (≈ 0.348 µg/mL) and the MIC (M. abscessus (4)) was over 100 µM. For the same compound, the MIC (M. tuberculosis (2) XDR) was 0.096 to 1.2 µM (≈ 0.0209 to 0.261 µg/mL), the MIC (M. tuberculosis Erdman) was 1.56 µM (≈ 0.339 µg/mL) and the MIC (M. africanum) was 0.20 µM (≈ 0.0435 µg/mL). For the same compound, the MIC (M. africanum; Mycobacterium tuberculosis) was 0.2 µM (≈ 0.0435 µg/mL) and the MIC90 (M. smegmatis mc^2155) was 10^d μM.
With `O=C(O)CCCCC[C@@H]1NC(=O)CS1` [(R)-(+)-acidomycin] the IC50 [1] was over 100 µM, the “inhibition of EcBioB” value ([1]; at 100 μM) was “less than 30%” and the “t1/2 (i.v.)” value [7] was 19.2 ± 2.4 min. For the same compound, the “F (oral bioavailability)” value [7] was 16 ± 7%, the “AUC0–∞ (i.v.)” value [7] was 2055 ± 564 ng·h/mL and the “CL (i.v.)” value [7] was 40.55 ± 8.03 mL/min/kg. For the same compound, the “Vd (i.v.)” value [7] was 1.12 ± 0.37 L/kg, the “AUC0–∞ (p.o.)” value [7] was 1591 ± 718 ng·h/mL and the MIC (M. tuberculosis H37Rv [6]) was 7.7 µM (≈ 1.67 µg/mL). For the same compound, the “fold difference in MIC relative to (S)-(−)-acidomycin” value (M. tuberculosis H37Rv [6]) was “thirteen-fold less active”.
For `O=C(O)CCCCC[C@H]1NC(=O)CS1` [(S)-(−)-acidomycin], the IC50 [1] was 13.3 ± 1.8 µM, the “t1/2 (i.v.)” value [7] was 14.4 ± 0.1 min and the “F (oral bioavailability)” value [7] was 8 ± 1%. For the same compound, the “AUC0–∞ (i.v.)” value [7] was 2116 ± 115 ng·h/mL, the “CL (i.v.)” value [7] was 39.38 ± 2.1 mL/min/kg and the “Vd (i.v.)” value [7] was 0.82 ± 0.05 L/kg. The “AUC0–∞ (p.o.)” value [7] was 890 ± 106 ng·h/mL.
For `Nc1ncnc2c1ncn2[C@@H]1O[C@H](CNS(=O)(=O)NC(=O)CCCC[C@@H]2SC[C@@H]3NC(=O)N[C@@H]32)[C@@H](O)[C@H]1O` [Bio-AMS, 5ʹ-[N-(D-biotinoyl)sulfamoyl]amino-5ʹ-deoxyadenosine], the “impact on global protein biotinylation” value [8] was “noticeable decrease in protein band intensity”.
For `CO[C@H]1/C=C/O[C@@]2(C)Oc3c(C)c(O)c4c(O)c(c(/C=N/N5CCN(C)CC5)c(O)c4c3C2=O)NC(=O)/C(C)=C\C=C\[C@H](C)[C@H](O)[C@@H](C)[C@@H](O)[C@@H](C)[C@H](OC(C)=O)[C@@H]1C` [Rifampicin, reference compound], the “IC/EC Ratio” value (E. coli K-12) was 2.1.
With `CN(C)[C@@H]1C(O)=C(C(N)=O)C(=O)[C@@]2(O)C(O)=C3C(=O)c4c(O)cccc4[C@@](C)(O)[C@H]3C[C@@H]12` [Tetracycline, reference compound] the “Accumulation, +biotin” value (E. coli K-12) was 1600 ± 100 nmol/10^12 CFUs, the “Accumulation, −biotin” value (E. coli K-12) was 3100 ± 120 nmol/10^12 CFUs and the “Accumulation, +biotin” value (M. tuberculosis H37Ra) was 2220 ± 50 nmol/10^12 CFUs. For the same compound, the “Accumulation, −biotin” value (M. tuberculosis H37Ra) was 2200 ± 200 nmol/10^12 CFUs.
In the case of `CSc1ccc2c(c1)N(CCC1CCCCN1C)c1ccccc1S2` (stereo not shown) [Thioridazine], the “Accumulation, +biotin” value (M. tuberculosis H37Ra) is reported as 5.2 ± 0.4 nmol/10^12 CFUs, the “Accumulation, −biotin” value (M. tuberculosis H37Ra) is reported as 18 ± 1 nmol/10^12 CFUs and the “IC/EC Ratio” value (M. tuberculosis H37Ra) is reported as 0.7 and 0.72 ± 0.04. For the same compound, the “Intracellular Concentration, −biotin” value (M. tuberculosis H37Ra) was 36 ± 2 µM.
With `O=C(O)CCCCCC1NC(=O)CS1` (stereo not shown) [acidomycin] the Ki [1] was about 1 µM, the “production of 5′-deoxyadenosine by BioB” value [1] was “significantly enhanced” and the time-dependent inhibition [1] was “did not exhibit time-dependent inhibition”. The “increase in inhibitory concentrations after growth in the presence of acidomycin” value (mycobacteria) was “two-fold”, the “concentrations required to inhibit the growth of mycobacteria in vitro” value (mycobacteria; converted value) was 1.2 to 46.0 µM and the “increase of accumulation of biotin pathway intermediates (vitamers)” value [9] was “two- to seventy-fold”. For the same compound, the “binding to MtBPL” value [10] was “does not bind to MtBPL”, the “concentration without growth inhibition” value [11] was over 1 mg/mL and the “concentration without growth inhibition” value ([11]; converted value) was over 4.6 mM. The solubility (physchem) was under 4000 µM, the “susceptibility of NTM strains” value [4] was “intrinsically resistant” and the MIC ([4]; read-out: MICs) was over 1000 µM. The “activity against an M. tuberculosis infection in vivo” value [12] was “inactive” and the “difference in whole cell activity, E. coli versus M. tuberculosis” value (M. tuberculosis H37Rv [6]) was over 100 fold.
